Data: BindingDB's records for doi:10.7270/Q2X63KBQ (The Scripps Research Institute Molecular Screening Center, 2009)

How the values were obtained:
Beta-lactamase = Beta-lactamase (Pseudomonas aeruginosa, UniProt Q932Y6); test: concentration-dependent VIM-2 enzyme inhibition – biochemical, epi-absorbance readout, selective inhibitors, dose response (AID 1919)
[1] = biological target: VIM-2 metallo β-lactamase (Pseudomonas aeruginosa, UniProt Q9K2N0); test: as above

Beta-lactamase, sequence (Q932Y6 whole entry): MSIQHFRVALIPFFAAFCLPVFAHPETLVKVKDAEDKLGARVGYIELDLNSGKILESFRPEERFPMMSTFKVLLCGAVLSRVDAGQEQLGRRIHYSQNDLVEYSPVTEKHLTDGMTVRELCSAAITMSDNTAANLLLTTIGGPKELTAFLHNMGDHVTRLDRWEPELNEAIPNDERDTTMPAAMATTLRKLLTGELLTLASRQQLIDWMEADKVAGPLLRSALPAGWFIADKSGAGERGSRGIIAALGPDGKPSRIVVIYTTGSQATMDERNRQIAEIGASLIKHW

SMILES	IC50 (Beta-lactamase)	IC50 [1]
Cn1c(-c2sccc2OCc2ccc(Cl)cc2Cl)n[nH]c1=S	6.63 µM	
COc1ccc(C(=O)C2C(=O)C(=O)N(Cc3ccco3)C2c2cc(OC)ccc2OC)cc1 (stereo not drawn) [(4E)-5-(2,5-dimethoxyphenyl)-1-(2-furanylmethyl)-4-[hydroxy-(4-methoxyphenyl)methylidene]pyrrolidine-2,3-dione]		12.8 µM
O=C1C(=O)N(Cc2cccnc2)C(c2ccccn2)C1C(=O)c1ccc(F)cc1 (stereo not drawn) [(4Z)-4-[(4-fluorophenyl)-hydroxy-methylene]-5-(2-pyridyl)-1-(3-pyridylmethyl)pyrrolidine-2,3-quinone]		2.42 µM
COc1cc(OC)c(OC)cc1C=NNC(=O)Cc1c(C)[nH][nH]c1=O [MLS000555854]		4.22 µM
O=C1C(=O)N(Cc2cccnc2)C(c2ccccn2)C1C(=O)c1ccccc1 (stereo not drawn) [(4Z)-4-[hydroxy(phenyl)methylene]-5-(2-pyridyl)-1-(3-pyridylmethyl)pyrrolidine-2,3-quinone]		5 µM
O=C1C(=O)N(Cc2cccnc2)C(c2ccccn2)C1C(=O)c1cccs1 (stereo not drawn) [3-hydroxy-5-(2-pyridinyl)-1-(3-pyridinylmethyl)-4-(2-thienylcarbonyl)-1,5-dihydro-2H-pyrrol-2-one]		13.2 µM
COc1ccc(OC)c(C=NNC(=O)Cc2c(C)[nH][nH]c2=O)c1 [SMR000147372]		6.1 µM
COc1ccc(OC)c(C2C(C(=O)c3ccco3)C(=O)C(=O)N2Cc2cccnc2)c1 (stereo not drawn) [2-(2,5-dimethoxyphenyl)-3-(furan-2-carbonyl)-4-hydroxy-1-(pyridin-3-ylmethyl)-2H-pyrrol-5-one]		1.94 µM
